Like-named read-outs stand apart in the source and are kept apart here.

The inhibition is the percentage by which the read-out fell short of the control.

Assay [1] deals with Ustilago maydis (USTIMA). Nature of the assay: microbe, parasite or virus in culture. Type of assay: cell-based. To be noted: Mycosarcoma maydis, read-out: USTIMA in vitro Growth Inhibition.
For assay [2], the system named is Leptosphaeria nodorum—LEPTNO. Nature of the assay: Glume Blotch of Wheat, in vivo whole plant, 24 Hour Protectant. To be noted: for pest or weed control at 100 ppm: Leptosphaeria, read-out: LEPTNO in vivo 1 Day Protectant.
Assay [3] deals with Septoria tritici—SEPTTR. Kind of assay: Leaf Blotch of Wheat, in vivo whole plant, 24 Hour Protectant. Particulars: for SEPTTR in vivo 1 Day Protectant: % control of fungal infection vs untreated plants; for pest or weed control at 100 ppm: Zymoseptoria tritici, 24 h, control of fungal infection vs untreated plants, read-out: SEPTTR in vivo 1 Day Protectant.
Assay [4] relates to Phytophthora infestans (PHYTIN). Nature of the assay: microbe, parasite or virus in culture. Type of assay: cell-based. Particulars: Phytophthora infestans, read-out: PHYTIN in vitro Growth Inhibition.
Assay [5] has as its system Magnaporthe grisea (Pyricularia oryzae—PYRIOR). Nature of the assay: microbe, parasite or virus in culture. To be noted: Pyricularia oryzae, read-out: PYRIOR in vitro Growth Inhibition. It is filed as cell-based.
The subject of assay [6] is Phytophthora infestans—PHYTIN. Nature of the assay: whole plant or invertebrate. Type of assay: in vivo. To be noted: Phytophthora, in Solanum lycopersicum, 24 h, read-out: PHYTIN in vivo 1 Day Protectant.
For assay [7], the system named is Puccinia recondita—PUCCRT. Kind of assay: Brown Rust of Wheat, in vivo whole plant, 24 Hour Protectant. Particulars: for PUCCRT in vivo 1 Day Protectant: % control of fungal infection vs untreated plants; for pest or weed control at 100 ppm: Puccinia, control of fungal infection vs untreated plants, read-out: PUCCRT in vivo 1 Day Protectant.
The subject of assay [8] is Stagonospora nodorum (Leptosphaeria nodorum—LEPTNO). Nature of the assay: In vitro fungal growth inhibition, Stagonospora nodorum (LEPTNO). Type of assay: cell-based. To be noted: Leptosphaeria, read-out: LEPTNO in vitro Growth Inhibition.
The subject of assay [9] is Rhizoctonia solani (RHIZSO). Kind of assay: microbe, parasite or virus in culture. To be noted: Rhizoctonia solani, read-out: RHIZSO in vitro Growth Inhibition. It is filed as cell-based.
Assay [10] relates to Erysiphe graminis—ERYSGT. Kind of assay: Powdery Mildew of Wheat, in vivo whole plant, 24 Hour Protectant. To be noted: for ERYSGT in vivo 1 Day Protectant: % control of fungal infection vs untreated plants; for pest or weed control at 100 ppm: Erysiphe, control of fungal infection vs untreated plants, read-out: ERYSGT in vivo 1 Day Protectant.
The subject of assay [11] is Mycosphaerella graminicola (Septoria tritici—SEPTTR). Kind of assay: In vitro fungal growth inhibition, Mycosphaerella graminicola (SEPTTR). Type of assay: cell-based. To be noted: Zymoseptoria tritici, read-out: SEPTTR in vitro Growth Inhibition.
Setting [12] is: 100 ppm spray, wheat, 24 hour protectant, % control of fungal infection vs untreated plants.
Where [13] appears, read: 100 ppm spray, wheat, 24 hour protectant.
[14] abbreviates: 100 ppm spray, 24 hour protectant, wheat, control of fungal infection vs untreated plants.
Where [15] appears, read: 100 ppm spray, 24 hour protectant, wheat.
Where [16] appears, read: 100 ppm spray, wheat, 24 hour protectant, control of fungal infection vs untreated plants.
The mark [17] stands for this setting: wheat plants sprayed at 100 ppm, inoculated after 24 hours, control of fungal infection vs untreated plants.
[18] abbreviates: wheat plants sprayed at 100 ppm, inoculated after 24 hours.

Take `CCOC(=O)Oc1c(OC)ccnc1C(=O)N[C@H]1COC(=O)[C@H](Cc2ccccc2)[C@@H](OC(=O)C(C)C)[C@H](C)OC1=O` [Compound 679]: the inhibition at 25 ppm was less than 80% in assay [1]; less than 80% in [4]; more than 80% in assay [5]; less than 80% in assay [8] (25 ppm in growth medium); more than 80% in assay [9]; less than 80% in assay [11] (25 ppm in growth medium). In assay [2] (setting [12]), the “LEPTNO in vivo 1 Day Protectant” value was “+ +”. Also, the “SEPTTR in vivo 1 Day Protectant” value in assay [3] (setting [13]) was “+ +”. Also, in assay [6], the pest or weed control at 100 ppm was less than 25%. The “PUCCRT in vivo 1 Day Protectant” value in assay [7] (setting [13]) was “+ +”. Besides, in assay [10] (setting [13]), the “ERYSGT in vivo 1 Day Protectant” value is given as “+ +”.

With `COc1ccnc(C(=O)NC2CCCC2O)c1O` (stereo not drawn) [Compound 248], the inhibition at 25 ppm in assay [1], in assay [4], in [5], in [8] (25 ppm in growth medium), in assay [9] and in assay [11] (25 ppm in growth medium) was less than 80% in each case. For the same molecule, the pest or weed control at 100 ppm in assay [2] (setting [14]) was 25 to 74%; in assay [3] (setting [15]), less than 25%; in assay [6], less than 25%; in [7] (setting [15]), less than 25%; in assay [10] (setting [15]), less than 25%.

Take `CCCCCCCCCCCCC(=O)O[C@H]1[C@H](C)OC(=O)[C@@H](NC(=O)c2nccc(OC)c2O)COC(=O)[C@@H]1Cc1ccccc1` [Compound 397]: the inhibition at 25 ppm in assay [1], in assay [4], in assay [5], in [8] (25 ppm in growth medium), in assay [9] and in assay [11] (25 ppm in growth medium) was less than 80% throughout. Besides, the pest or weed control at 100 ppm in assay [2] (setting [16]) is 25 to 74%; in [3] (setting [13]) it was 25 to 74%; in [6], less than 25%; in [7] (setting [13]), 25 to 74%; in assay [10] (setting [13]), less than 25%.

Take `COc1ccnc(C(=O)NC/C=C(\C)CCC=C(C)C)c1O` [Compound 242]: the inhibition at 25 ppm in assay [1], in [4], in assay [5], in [8] (25 ppm in growth medium), in assay [9] and in assay [11] (25 ppm in growth medium) was more than 80% throughout. In addition, the pest or weed control at 100 ppm in [2] (setting [14]) is less than 25%; in [3] (setting [15]), 25 to 74%; in assay [6], less than 25%; in assay [7] (setting [15]), less than 25%; in [10] (setting [15]), less than 25%.

In the case of `O=C(Nc1ccc(Oc2cccc(C(F)(F)F)c2)cc1)c1cscc1O` [Compound 555], the inhibition at 25 ppm in assay [1] was less than 80%; in assay [4], more than 80%; in [5] it was more than 80%; in assay [8] (25 ppm in the growth medium), more than 80%; in [9], more than 80%; in assay [11] (25 ppm in the growth medium), more than 80%. Further, the pest or weed control at 100 ppm is 25 to 74% in [2] (setting [17]); 25 to 74% in [3] (setting [18]); less than 25% in assay [6]; less than 25% in assay [7] (setting [18]); less than 25% in assay [10] (setting [18]).

In the case of `COc1ccnc(C(=O)NCCCc2cccnc2)c1O` [Compound 243], the inhibition at 25 ppm in assay [1], in [4], in [5], in [8] (25 ppm in growth medium), in assay [9] and in assay [11] (25 ppm in growth medium) was less than 80% each time. Further, the pest or weed control at 100 ppm in assay [2] (setting [14]) is 25 to 74%; in assay [3] (setting [15]), 25 to 74%; in [6] it was less than 25%; in assay [7] (setting [15]) it was 25 to 74%; in assay [10] (setting [15]), less than 25%.

Take `COc1ccnc(C(=O)N[C@H]2COC(=O)[C@H](Cc3ccccc3)[C@@H](OC(=O)OC(C)C)[C@H](C)OC2=O)c1O` [Compound 401]: the inhibition at 25 ppm was more than 80% in assay [1]; less than 80% in assay [4]; more than 80% in assay [5]; more than 80% in assay [8] (25 ppm in growth medium); less than 80% in assay [9]; more than 80% in [11] (25 ppm in growth medium). Also, the “LEPTNO in vivo 1 Day Protectant” value in [2] (setting [16]) is recorded as “+ +”. The pest or weed control at 100 ppm in [3] (setting [13]) is 25 to 74%; in assay [6] it was less than 25%; in [7] (setting [13]) it was 25 to 74%; in assay [10] (setting [13]), less than 25%.

On to `COc1ccnc(C(=O)N[C@H]2COC(=O)[C@H](Cc3ccccc3)[C@@H](OC(=O)NC(C)(C)C)[C@H](C)OC2=O)c1O` [Compound 400], for which the inhibition at 25 ppm in [1] was less than 80%; in [4] it was less than 80%; in assay [5], more than 80%; in assay [8] (25 ppm in growth medium), less than 80%; in assay [9] it was less than 80%; in assay [11] (25 ppm in growth medium), less than 80%. Also, the “LEPTNO in vivo 1 Day Protectant” value in assay [2] (setting [16]) is listed as “+ +”. The pest or weed control at 100 ppm is 25 to 74% in [3] (setting [13]), less than 25% in [6], 25 to 74% in assay [7] (setting [13]) and 25 to 74% in [10] (setting [13]).

On to `CCCCCCC(=O)Oc1c(OC)ccnc1C(=O)N[C@H]1COC(=O)[C@H](Cc2ccccc2)[C@@H](OC(=O)C(C)C)[C@H](C)OC1=O` [Compound 613], for which the inhibition at 25 ppm in assay [1] was less than 80%; in assay [4], more than 80%; in assay [5] it was less than 80%; in assay [8] (25 ppm in growth medium), less than 80%; in [9], less than 80%; in [11] (25 ppm in growth medium) it was less than 80%. Also, the pest or weed control at 100 ppm in assay [2] (setting [12]) and in assay [6] was 25 to 74% in each case. Also, in [3] (setting [13]), the “SEPTTR in vivo 1 Day Protectant” value is “+ +”. Also, in assay [7] (setting [13]), the “PUCCRT in vivo 1 Day Protectant” value is recorded as “+ +”. Also, in assay [10] (setting [13]), the “ERYSGT in vivo 1 Day Protectant” value was “+ +”.

Regarding `O=C(NCc1ccccc1)c1ccncc1O` [Compound 506], the inhibition at 25 ppm in assay [1], in [4], in assay [5], in assay [8] (25 ppm in the growth medium), in [9] and in assay [11] (25 ppm in the growth medium) was less than 80% each time. The pest or weed control at 100 ppm in assay [2] (setting [17]), in assay [3] (setting [18]), in [6], in [7] (setting [18]) and in assay [10] (setting [18]) was less than 25% each time.

In the case of `COc1ccnc(C(=O)Nc2ccc(Oc3ccc(Cl)cc3)cc2)c1O` [Compound 443], the inhibition at 25 ppm in assay [1] was less than 80%; in assay [4], less than 80%; in [5], less than 80%; in [8] (25 ppm in growth medium), more than 80%; in assay [9], less than 80%; in [11] (25 ppm in growth medium), less than 80%. For the same molecule, the pest or weed control at 100 ppm in assay [2] (setting [16]) is less than 25%; in [3] (setting [13]), less than 25%; in assay [6] it was less than 25%; in assay [7] (setting [13]) it was 25 to 74%; in assay [10] (setting [13]), less than 25%.

For the molecule `CC(NC(=O)c1ccncc1O)c1ccc(C(F)(F)F)cc1` (stereo not drawn) [Compound 510], the inhibition at 25 ppm in assay [1], in [4], in assay [5], in assay [8] (25 ppm in the growth medium), in assay [9] and in assay [11] (25 ppm in the growth medium) was less than 80% in each case. Besides, the pest or weed control at 100 ppm in [2] (setting [17]) is less than 25%; in assay [3] (setting [18]), less than 25%; in assay [6], 25 to 74%; in assay [7] (setting [18]) it was less than 25%; in assay [10] (setting [18]), less than 25%.

Source of the values: patent US6706740B2, “Fungicidal heterocyclic aromatic amides and their compositions, methods of use and preparation” (Dow AgroSciences LLC, priority 1999, dated 2004).
